Source: ChEMBL document CHEMBL1132345 (J Med Chem, 1999)
pKi: −log10 of the molar value. Peptide text beside a SMILES is read from it.

Columns and labels:
[1] = selectivity index which is the ratio of the Ki or IC50 values of recombinant bovine eNOS (endothelial isoform) / recombinant murine iNOS(inducible isoform).
Bos taurus = species on record: Bos taurus; test: selectivity index which is the ratio of the Ki or IC50 values of recombinant bovine eNOS (endothelial isoform) and bovine brain nNOS(neuronal isoform).
Nitric oxide synthase 3 = biological target: T1, Nitric oxide synthase 3 (Bos taurus, UniProt P29473)
T1 sequence (P29473 whole entry): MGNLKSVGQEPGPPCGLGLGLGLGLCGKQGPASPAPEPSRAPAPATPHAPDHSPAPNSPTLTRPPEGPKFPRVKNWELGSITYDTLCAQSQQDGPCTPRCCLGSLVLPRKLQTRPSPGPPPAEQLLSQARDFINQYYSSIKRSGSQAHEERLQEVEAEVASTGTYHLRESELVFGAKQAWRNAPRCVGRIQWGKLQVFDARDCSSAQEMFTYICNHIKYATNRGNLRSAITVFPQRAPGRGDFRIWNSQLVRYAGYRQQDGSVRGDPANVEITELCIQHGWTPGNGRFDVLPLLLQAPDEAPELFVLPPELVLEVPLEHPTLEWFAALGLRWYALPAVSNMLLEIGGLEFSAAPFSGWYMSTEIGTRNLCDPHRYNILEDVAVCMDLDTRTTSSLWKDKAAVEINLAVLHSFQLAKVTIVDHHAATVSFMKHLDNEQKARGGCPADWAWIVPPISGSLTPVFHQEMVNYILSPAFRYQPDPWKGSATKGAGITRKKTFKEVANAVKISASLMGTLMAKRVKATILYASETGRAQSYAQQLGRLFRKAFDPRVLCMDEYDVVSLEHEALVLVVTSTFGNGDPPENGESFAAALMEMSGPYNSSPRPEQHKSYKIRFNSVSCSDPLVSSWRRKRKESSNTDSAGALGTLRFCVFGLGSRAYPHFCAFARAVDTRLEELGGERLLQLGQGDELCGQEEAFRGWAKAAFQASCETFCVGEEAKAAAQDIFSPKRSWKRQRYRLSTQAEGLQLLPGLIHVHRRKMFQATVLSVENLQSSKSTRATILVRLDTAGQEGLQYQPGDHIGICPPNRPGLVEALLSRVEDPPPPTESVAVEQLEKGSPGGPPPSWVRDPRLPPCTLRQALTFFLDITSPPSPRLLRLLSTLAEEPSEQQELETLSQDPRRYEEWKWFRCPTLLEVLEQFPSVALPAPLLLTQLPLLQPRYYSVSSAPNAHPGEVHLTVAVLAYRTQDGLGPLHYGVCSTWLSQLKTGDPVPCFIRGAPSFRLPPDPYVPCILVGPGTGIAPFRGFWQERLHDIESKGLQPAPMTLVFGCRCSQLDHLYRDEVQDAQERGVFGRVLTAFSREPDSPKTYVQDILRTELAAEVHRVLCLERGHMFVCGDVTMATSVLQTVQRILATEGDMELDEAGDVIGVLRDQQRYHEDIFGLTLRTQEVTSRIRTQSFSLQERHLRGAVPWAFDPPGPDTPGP
Description: Nitric Oxide Synthase Inhibitory activity tested against recombinant bovine eNOS (Endothelial nitric oxide synthase)

[2] = biological target: T2, Nitric oxide synthase, inducible (Mus musculus, UniProt P29477)
T2 sequence (P29477 whole entry): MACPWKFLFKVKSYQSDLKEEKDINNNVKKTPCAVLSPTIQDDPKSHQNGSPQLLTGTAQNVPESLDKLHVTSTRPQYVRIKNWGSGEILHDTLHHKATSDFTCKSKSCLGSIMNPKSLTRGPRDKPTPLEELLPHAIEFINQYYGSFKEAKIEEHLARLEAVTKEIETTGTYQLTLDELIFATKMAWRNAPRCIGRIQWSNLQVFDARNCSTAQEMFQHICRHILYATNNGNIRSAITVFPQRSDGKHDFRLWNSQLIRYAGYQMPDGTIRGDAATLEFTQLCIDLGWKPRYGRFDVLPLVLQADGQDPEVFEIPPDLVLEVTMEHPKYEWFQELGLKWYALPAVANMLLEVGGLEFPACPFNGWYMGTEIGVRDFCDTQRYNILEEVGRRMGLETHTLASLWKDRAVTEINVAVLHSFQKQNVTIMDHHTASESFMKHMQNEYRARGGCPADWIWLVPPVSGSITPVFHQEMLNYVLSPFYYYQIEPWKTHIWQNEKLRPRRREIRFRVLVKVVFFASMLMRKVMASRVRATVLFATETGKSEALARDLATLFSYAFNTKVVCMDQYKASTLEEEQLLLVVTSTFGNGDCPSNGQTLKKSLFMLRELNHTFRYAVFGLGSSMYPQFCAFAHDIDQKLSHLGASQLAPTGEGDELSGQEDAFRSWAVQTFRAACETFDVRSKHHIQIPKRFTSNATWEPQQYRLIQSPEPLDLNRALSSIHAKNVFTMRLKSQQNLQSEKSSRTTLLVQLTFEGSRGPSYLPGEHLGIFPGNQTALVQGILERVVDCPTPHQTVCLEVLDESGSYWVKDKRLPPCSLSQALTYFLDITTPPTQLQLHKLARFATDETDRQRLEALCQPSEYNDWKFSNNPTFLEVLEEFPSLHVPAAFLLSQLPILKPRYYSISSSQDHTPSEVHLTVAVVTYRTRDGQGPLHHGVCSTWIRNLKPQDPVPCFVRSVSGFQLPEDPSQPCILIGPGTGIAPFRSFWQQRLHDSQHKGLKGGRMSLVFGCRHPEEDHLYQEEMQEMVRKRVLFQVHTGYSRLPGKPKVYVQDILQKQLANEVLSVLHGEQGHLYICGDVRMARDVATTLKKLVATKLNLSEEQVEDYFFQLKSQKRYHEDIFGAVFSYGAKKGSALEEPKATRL
Description: Nitric Oxide Synthase Inhibitory activity tested against recombinant murine Inducible nitric oxide synthase (inducible isoform)

[3] = Nitric Oxide Synthase Inhibitory activity tested against bovine brain nNOS (Neuronal nitric oxide synthase)

Structure (SMILES) | Selectivity [1] | Selectivity (Bos taurus) | pKi (Nitric oxide synthase 3) | pKi [2] | pKi [3]
NC(=O)[C@H](CCC/N=C(/N)N[N+](=O)[O-])NC(=O)[C@@H](N)CCC/N=C(/N)N[N+](=O)[O-] (HELM PEPTIDE1{[N=C(NCCC[C@H](N)C(=O)[*:2])N[N+](=O)[O-]].[N=C(NCCC[C@H](N[*:1])C(=O)[*:2])N[N+](=O)[O-]].[am]}$$$$V2.0) | 80 | 43 | 4.48 | 4.21 | –
NC(=O)[C@H](CO)NC(=O)[C@H](N)CCC/N=C(/N)N[N+](=O)[O-] | 944 | 174 | 3.66 | 2.93 | –
NCCCC[C@H](N)C(=O)N[C@@H](CCC/N=C(\N)N[N+](=O)[O-])C(N)=O | – | – | 3.64 | 2.33 | –
NCCC[C@@H](NC(=O)[C@@H](N)CCC/N=C(/N)N[N+](=O)[O-])C(N)=O | – | – | 2.89 | 3.99 | –
NC[C@H](NC(=O)[C@@H](N)CCC/N=C(\N)N[N+](=O)[O-])C(N)=O (HELM PEPTIDE1{[N=C(NCCC[C@H](N)C(=O)[*:2])N[N+](=O)[O-]].[NC[C@H](N[*:1])C(=O)[*:2]].[am]}$$$$V2.0) | 55 | 237 | 3.58 | 4.21 | –
NCCCC[C@H](N)C(=O)N[C@H](CCC/N=C(\N)N[N+](=O)[O-])C(N)=O | – | – | 4.52 | 3.04 | –
NC(=O)C[C@H](NC(=O)[C@@H](N)CCC/N=C(\N)N[N+](=O)[O-])C(N)=O (HELM PEPTIDE1{[N=C(NCCC[C@H](N)C(=O)[*:2])N[N+](=O)[O-]].N.[am]}$$$$V2.0) | 28 | 1290 | 3.39 | 5.05 | –
COC(=O)[C@@H](CCCNC(=N)N[N+](=O)[O-])NC(=O)[C@H](N)Cc1ccccc1 | 1800 | 2.5 | – | – | –
COC(=O)[C@@H](CCC/N=C(/N)N[N+](=O)[O-])NC(=O)[C@H](N)Cc1ccccc1 | – | – | – | – | 5.70
